From patent publication US20200089110A1, “SULFONIC ACID DERIVATIVE COMPOUNDS AS PHOTOACID GENERATORS IN RESIST APPLICATIONS” (Heraeus Precious Metals North America Daychem LLC, priority 2015, published 2020)

Legend:
[1] = Photolysis of PAGs in acetonitrile under 365 nm irradiation (photoreactivity); type: physicochemical; conditions: for Solubility × Photoreactivity: product of solubility in PGMEA and relative photoreactivity at 365 nm
Description: A photoresist composition typically comprises PAG, polymers, additives and solvents. The performance of a photoresist composition is mainly dependent on the properties of the PAG and polymer components. To formulate a high-performance photoresist composition, more photosensitive PAGs are typically selected. The photosensitivity of a PAG is typically directly related to the strength of the generated acid and the photoreactivity of the PAG. For a series of PAGs producing the same latent acid, their photosensitivity is related only to their photoreactivity. Thus evaluating the photosensitivity of a PAG can be achieved by studying its photoreactivity. The higher photoreactivity, the higher photosensitivity. The photoreactivity can be investigated by photolysis of a PAG in its dilute solution under low exposure intensity (to avoid side reactions which don't generate the desired acid). The change in the concentration of a PAG upon irradiation can be determined by measuring the absorbance of the PAG at the maximum absorption wavelength.
(§1) Photolysis of PAGs was carried out in acetonitrile in air at room temperature. The sodium salt of tetrabromophenol blue (TBPBNa), an acid indicator dye, which has a maximum absorption at 618 nm, was purchased from Aldrich (indicator grade) and used as received. Irradiation of the solution of the PAGs (3×10^−5 M) was performed using a Cole-Parmer UV 15 W bench lamp (EW-97605-50) at 365 nm. Light intensity was measured using an UV Power Puck II radiometer from EIT Inc. UV-Vis spectra were run on a Thermo Scientific Evolution 201 UV-visible spectrophotometer.
Photolysis of NIT, comparative compound A, D-1, and D-2 was examined in acetonitrile. The absorption band at 397 nm gradually decreases upon irradiation, indicating the progress of photoreaction with the increase of exposure dose of energy. Assuming the photoreaction is first-order, plot of natural log of changes in absorbance with exposure dose of energy gives the photoreaction constant of D-2 (i.e. the slope of the linear trendline) (FIG. 2). The photoreaction constants of other compounds were similarly determined under the same irradiation condition.
Comparing the constants of A, D-1, and D-2 with that of NIT normalized to one gives the relative photoreactivity (Table 7). The photoreactivity for PAG (e.g. D-2) according to the present disclosure is ˜8 times greater than that of NIT and ˜3 times greater than that of Comparative Compound A. The formation of acid upon irradiation was confirmed by observing the spectral changes of the acid indicator, TBPBNa at 618 nm.

Solubility in PGMEA = type: physicochemical; conditions: in propylene glycol monomethyl ether acetate (PGMEA)
[2] = UV-Vis spectra of PAG compounds; type: physicochemical; conditions: for absorbance at i-line of a mercury lamp: compared with NIT (FIG. 4); for strong absorption band: 0.001% w/v (FIG. 4)
Method: FIG. 4 is a UV-Vis spectra of compounds NIT, D-1, and D-2 in PGMEA and D-4 in acetonitrile (0.001% w/v).
as §1

SMILES	Solubility × Photoreactivity [1]	Solubility (w/w %) in PGMEA (Solubility in PGMEA)	melting point	absorbance at i-line of a mercury lamp [2]	strong absorption band ([2]; in PGMEA)	absorption band ([1]; in acetonitrile, band decreases upon irradiation (FIG. 1))	g-line absorbance ([2]; FIG. 4)	strong absorption band ([2]; in acetonitrile)
CCC(C)Oc1ccc(/C=C/c2ccc3c4c(cccc24)C(=O)N(OS(=O)(=O)C(F)(F)F)C3=O)cc1 (stereo not drawn)	37.4%	4.3% w/w %						
O=C1c2cccc3c(C#Cc4ccccc4)ccc(c23)C(=O)N1OS(=O)(=O)C(F)(F)F [Comparative Compound A, reference compound]	2.5%	1.0% w/w %						
O=C1c2cccc3cccc(c23)C(=O)N1OS(=O)(=O)C(F)(F)F [NIT, N-Hydroxynaphthalimide triflate, reference compound]	1.7%	1.7% w/w %						

Next, values leading:

Solubility × Photoreactivity [1]	Solubility (w/w %) in PGMEA (Solubility in PGMEA)	melting point	absorbance at i-line of a mercury lamp [2]	strong absorption band ([2]; in PGMEA)	absorption band ([1]; in acetonitrile, band decreases upon irradiation (FIG. 1))	g-line absorbance ([2]; FIG. 4)	strong absorption band ([2]; in acetonitrile)	SMILES
12.4%	6.9% w/w %	151 to 152 °C	much larger than that of NIT	363 nm				CCCCOC(=O)/C=C/c1ccc2c3c(cccc13)C(=O)N(OS(=O)(=O)C(F)(F)F)C2=O [Compound D-1]
13.1%	1.6% w/w %	182 to 184 °C	much larger than that of NIT	397 nm	397 nm			O=C1c2cccc3c(/C=C/c4ccccc4)ccc(c23)C(=O)N1OS(=O)(=O)C(F)(F)F [Compound D-2]
		227 to 229 °C						CC(C)(C)c1ccc(/C=C/c2ccc3c4c(cccc24)C(=O)N(OS(=O)(=O)C(F)(F)F)C3=O)cc1 [Compound D-3]
			much larger than that of NIT			large	415 nm	CC(C)(C)Oc1ccc(/C=C/c2ccc3c4c(cccc24)C(=O)N(OS(=O)(=O)C(F)(F)F)C3=O)cc1 [Compound D-4]
